For one experiment, the system named is SH-SY5Y. Description: Neuroprotective activity against H2O2-induced cytotoxicity in human SH-SY5Y cells assessed as cell viability at 10 uM pretreated for 2 hrs followed by H2O2 challenge and measured after 24 hrs by MTT assay relative to control. The format is functional. The settings on record: for viability at 10 µM: read-out: Activity. For orientation: Tetrazolium assays rely on reduction of a dye to a coloured formazan, in cell work by metabolically active cells.

The subject of another experiment is RAW264.7. Description: Antiinflammatory activity in mouse RAW264.7 cells assessed as inhibition of LPS-induced nitric oxide production at 10 uM preincubated for 2 hrs followed by LPS stimulation and measured after 24 hrs by Griess assay relative to control. It is filed as functional. Background: Nitrite, measured by Griess reagent, commonly stands in for NO production.

The source made the active and inactive calls. The rule behind the calls is not given here.

Regarding `C[C@@H]1CC[C@@]2(OC1)O[C@H]1C[C@H]3[C@@H]4CC=C5C[C@@H](OC(=O)N6CCCCC6)CC[C@]5(C)[C@H]4CC[C@]3(C)[C@H]1[C@@H]2C`, the viability at 10 µM in the experiment with SH-SY5Y is 36.7%. The inhibition at 10 µM with RAW264.7 was found to be 12%.

`COc1ccc(CN(C)C(=O)O[C@H]2CC[C@@]3(C)C(=CC[C@H]4[C@@H]5C[C@@H]6O[C@]7(CC[C@@H](C)CO7)[C@@H](C)[C@@H]6[C@@]5(C)CC[C@@H]43)C2)cc1`: the viability at 10 µM in the experiment with SH-SY5Y is 19.4%.

For the compound `C[C@@H]1CC[C@@]2(OC1)O[C@H]1C[C@H]3[C@@H]4CC=C5C[C@@H](OC(=O)N(C)Cc6ccc(Cl)cc6)CC[C@]5(C)[C@H]4CC[C@]3(C)[C@H]1[C@@H]2C`, the viability at 10 µM with SH-SY5Y is 43.9%. In addition, in the experiment with RAW264.7, the inhibition at 10 µM is 12.5%.

Turning to `C[C@@H]1CC[C@@]2(OC1)O[C@H]1C[C@H]3[C@@H]4CC=C5C[C@@H](OC(=O)N6CCN(Cc7ccccc7)CC6)CC[C@]5(C)[C@H]4CC[C@]3(C)[C@H]1[C@@H]2C`, the viability at 10 µM in the experiment on SH-SY5Y amounted to 11.2%.

`COc1ccc(CN2CCN(C(=O)O[C@H]3CC[C@@]4(C)C(=CC[C@H]5[C@@H]6C[C@@H]7O[C@]8(CC[C@@H](C)CO8)[C@@H](C)[C@@H]7[C@@]6(C)CC[C@@H]54)C3)CC2)cc1`: the result in the experiment with SH-SY5Y was inactive.

For the compound `COc1ccc(CNC(=O)O[C@H]2CC[C@@]3(C)C(=CC[C@H]4[C@@H]5C[C@@H]6O[C@]7(CC[C@@H](C)CO7)[C@@H](C)[C@@H]6[C@@]5(C)CC[C@@H]43)C2)cc1`, the viability at 10 µM in the experiment with SH-SY5Y is 53.5%. Further, in the experiment with RAW264.7, the inhibition at 10 µM was found to be 18.6%.

As to `C[C@@H]1CC[C@@]2(OC1)O[C@H]1C[C@H]3[C@@H]4CC=C5C[C@@H](OC(=O)N6CCN(Cc7ccc(F)cc7)CC6)CC[C@]5(C)[C@H]4CC[C@]3(C)[C@H]1[C@@H]2C`, in the experiment on SH-SY5Y, the viability at 10 µM was determined as 5.4%.

Turning to `C[C@@H]1CC[C@@]2(OC1)O[C@H]1C[C@H]3[C@@H]4CC=C5C[C@@H](OC(=O)NCc6cnccn6)CC[C@]5(C)[C@H]4CC[C@]3(C)[C@H]1[C@@H]2C`, in the experiment on SH-SY5Y, the viability at 10 µM was determined as 22.3%.

For the compound `COc1cc(CN2CCN(C(=O)O[C@H]3CC[C@@]4(C)C(=CC[C@H]5[C@@H]6C[C@@H]7O[C@]8(CC[C@@H](C)CO8)[C@@H](C)[C@@H]7[C@@]6(C)CC[C@@H]54)C3)CC2)ccc1O`, in the experiment on SH-SY5Y, the viability at 10 µM is 23.1%.

For `C[C@@H]1CC[C@@]2(OC1)O[C@H]1C[C@H]3[C@@H]4CC=C5C[C@@H](OC(=O)NCc6ccccc6Cl)CC[C@]5(C)[C@H]4CC[C@]3(C)[C@H]1[C@@H]2C`, the viability at 10 µM with SH-SY5Y was 8.9%.

Regarding `C[C@@H]1CC[C@@]2(OC1)O[C@H]1C[C@H]3[C@@H]4CC=C5C[C@@H](OC(=O)N6CCCC6)CC[C@]5(C)[C@H]4CC[C@]3(C)[C@H]1[C@@H]2C`, the viability at 10 µM in the experiment on SH-SY5Y is 63.2%. For the same compound, the inhibition at 10 µM in the experiment with RAW264.7 stood at 16.5%.

As to `C[C@@H]1CC[C@@]2(OC1)O[C@H]1C[C@H]3[C@@H]4CC=C5C[C@@H](OC(=O)NCc6ccc(C(F)(F)F)cc6)CC[C@]5(C)[C@H]4CC[C@]3(C)[C@H]1[C@@H]2C`, in the experiment with SH-SY5Y, the result was inactive.

Turning to `C[C@@H]1CC[C@@]2(OC1)O[C@H]1C[C@H]3[C@@H]4CC=C5C[C@@H](OC(=O)NCc6ccncc6)CC[C@]5(C)[C@H]4CC[C@]3(C)[C@H]1[C@@H]2C`, the viability at 10 µM with SH-SY5Y was determined as 42.1%. Moreover, the inhibition at 10 µM in the experiment with RAW264.7 turned out to be 11.8%.

As for `Cc1ccc(CN(C)C(=O)O[C@H]2CC[C@@]3(C)C(=CC[C@H]4[C@@H]5C[C@@H]6O[C@]7(CC[C@@H](C)CO7)[C@@H](C)[C@@H]6[C@@]5(C)CC[C@@H]43)C2)cc1`, the result in the experiment with SH-SY5Y was inactive.

For `CCN(C)C(=O)O[C@H]1CC[C@@]2(C)C(=CC[C@H]3[C@@H]4C[C@@H]5O[C@]6(CC[C@@H](C)CO6)[C@@H](C)[C@@H]5[C@@]4(C)CC[C@@H]32)C1`, in the experiment on SH-SY5Y, the viability at 10 µM was determined as 4.3%.

As to `CC(C)CN(C)C(=O)O[C@H]1CC[C@@]2(C)C(=CC[C@H]3[C@@H]4C[C@@H]5O[C@]6(CC[C@@H](C)CO6)[C@@H](C)[C@@H]5[C@@]4(C)CC[C@@H]32)C1`, the viability at 10 µM in the experiment with SH-SY5Y came to 17.7%.

`C[C@@H]1CC[C@@]2(OC1)O[C@H]1C[C@H]3[C@@H]4CC=C5C[C@@H](OC(=O)NCc6cccc(F)c6)CC[C@]5(C)[C@H]4CC[C@]3(C)[C@H]1[C@@H]2C`: in the experiment on SH-SY5Y, the viability at 10 µM amounted to 27.4%.

As for `C[C@@H]1CC[C@@]2(OC1)O[C@H]1C[C@H]3[C@@H]4CC=C5C[C@@H](OC(=O)NCc6cccc(Cl)c6)CC[C@]5(C)[C@H]4CC[C@]3(C)[C@H]1[C@@H]2C`, the viability at 10 µM with SH-SY5Y is 13.7%.

In the case of `CC(C)CNC(=O)O[C@H]1CC[C@@]2(C)C(=CC[C@H]3[C@@H]4C[C@@H]5O[C@]6(CC[C@@H](C)CO6)[C@@H](C)[C@@H]5[C@@]4(C)CC[C@@H]32)C1`, the viability at 10 µM with SH-SY5Y was 25.3%.

Regarding `COc1ccccc1CNC(=O)O[C@H]1CC[C@@]2(C)C(=CC[C@H]3[C@@H]4C[C@@H]5O[C@]6(CC[C@@H](C)CO6)[C@@H](C)[C@@H]5[C@@]4(C)CC[C@@H]32)C1`, in the experiment with SH-SY5Y, the viability at 10 µM was determined as 11.3%.

Consider `C[C@@H]1CC[C@@]2(OC1)O[C@H]1C[C@H]3[C@@H]4CC=C5C[C@@H](OC(=O)N6CCN(Cc7ccc(Cl)cc7)CC6)CC[C@]5(C)[C@H]4CC[C@]3(C)[C@H]1[C@@H]2C`, for which the viability at 10 µM in the experiment on SH-SY5Y turned out to be 4.5%.

On to `C[C@@H]1CC[C@@]2(OC1)O[C@H]1C[C@H]3[C@@H]4CC=C5C[C@@H](OC(=O)NCc6ccccc6F)CC[C@]5(C)[C@H]4CC[C@]3(C)[C@H]1[C@@H]2C`, for which the viability at 10 µM in the experiment on SH-SY5Y is 21%.

`Cc1ccccc1CNC(=O)O[C@H]1CC[C@@]2(C)C(=CC[C@H]3[C@@H]4C[C@@H]5O[C@]6(CC[C@@H](C)CO6)[C@@H](C)[C@@H]5[C@@]4(C)CC[C@@H]32)C1`: the viability at 10 µM with SH-SY5Y was found to be 7.9%.

For the compound `C[C@@H]1CC[C@@]2(OC1)O[C@H]1C[C@H]3[C@@H]4CC=C5C[C@@H](OC(=O)NCc6cccnc6)CC[C@]5(C)[C@H]4CC[C@]3(C)[C@H]1[C@@H]2C`, in the experiment with SH-SY5Y, the viability at 10 µM turned out to be 3.5%.

For the compound `CCNC(=O)O[C@H]1CC[C@@]2(C)C(=CC[C@H]3[C@@H]4C[C@@H]5O[C@]6(CC[C@@H](C)CO6)[C@@H](C)[C@@H]5[C@@]4(C)CC[C@@H]32)C1`, in the experiment on SH-SY5Y, the viability at 10 µM came to 10.9%.

Take `CCCCNC(=O)O[C@H]1CC[C@@]2(C)C(=CC[C@H]3[C@@H]4C[C@@H]5O[C@]6(CC[C@@H](C)CO6)[C@@H](C)[C@@H]5[C@@]4(C)CC[C@@H]32)C1`: in the experiment with SH-SY5Y, the viability at 10 µM turned out to be 47.8%. Also, the inhibition at 10 µM in the experiment on RAW264.7 stood at 11%.

With `C[C@@H]1CC[C@@]2(OC1)O[C@H]1C[C@H]3[C@@H]4CC=C5C[C@@H](OC(=O)NCc6ccc(Cl)cc6)CC[C@]5(C)[C@H]4CC[C@]3(C)[C@H]1[C@@H]2C`, in the experiment with SH-SY5Y, the viability at 10 µM was determined as 56.9%. Further, in the experiment on RAW264.7, the inhibition at 10 µM came out at 7%.

`C[C@@H]1CC[C@@]2(OC1)O[C@H]1C[C@H]3[C@@H]4CC=C5C[C@@H](OC(=O)N(C)Cc6ccccc6)CC[C@]5(C)[C@H]4CC[C@]3(C)[C@H]1[C@@H]2C`: in the experiment with SH-SY5Y, the viability at 10 µM worked out at 43.5%. In addition, in the experiment with RAW264.7, the inhibition at 10 µM was 20.8%.

As for `C[C@@H]1CC[C@@]2(OC1)O[C@H]1C[C@H]3[C@@H]4CC=C5C[C@@H](OC(=O)NC6CC6)CC[C@]5(C)[C@H]4CC[C@]3(C)[C@H]1[C@@H]2C`, the result with SH-SY5Y was inactive.

On to `C[C@@H]1CC[C@@]2(OC1)O[C@H]1C[C@H]3[C@@H]4CC=C5C[C@@H](OC(=O)NC6CCCCC6)CC[C@]5(C)[C@H]4CC[C@]3(C)[C@H]1[C@@H]2C`, for which the viability at 10 µM in the experiment on SH-SY5Y was 34.4%. The inhibition at 10 µM with RAW264.7 was found to be 11.6%.

`C[C@@H]1CC[C@@]2(OC1)O[C@H]1C[C@H]3[C@@H]4CC=C5C[C@@H](O)CC[C@]5(C)[C@H]4CC[C@]3(C)[C@H]1[C@@H]2C` [DISOGENIN]: the viability at 10 µM in the experiment on SH-SY5Y worked out at 6.7%.

Turning to `COc1cccc(CNC(=O)O[C@H]2CC[C@@]3(C)C(=CC[C@H]4[C@@H]5C[C@@H]6O[C@]7(CC[C@@H](C)CO7)[C@@H](C)[C@@H]6[C@@]5(C)CC[C@@H]43)C2)c1`, the viability at 10 µM with SH-SY5Y was determined as 38.8%. Also, the inhibition at 10 µM with RAW264.7 amounted to 9.8%.

Regarding `C[C@@H]1CC[C@@]2(OC1)O[C@H]1C[C@H]3[C@@H]4CC=C5C[C@@H](OC(=O)N(C)Cc6ccc(F)cc6)CC[C@]5(C)[C@H]4CC[C@]3(C)[C@H]1[C@@H]2C`, in the experiment with SH-SY5Y, the viability at 10 µM is 10.7%.

Take `Cc1cccc(CNC(=O)O[C@H]2CC[C@@]3(C)C(=CC[C@H]4[C@@H]5C[C@@H]6O[C@]7(CC[C@@H](C)CO7)[C@@H](C)[C@@H]6[C@@]5(C)CC[C@@H]43)C2)c1`: the viability at 10 µM in the experiment on SH-SY5Y was 14.2%.

As to `C[C@@H]1CC[C@@]2(OC1)O[C@H]1C[C@H]3[C@@H]4CC=C5C[C@@H](OC(=O)N6CCN(C)CC6)CC[C@]5(C)[C@H]4CC[C@]3(C)[C@H]1[C@@H]2C`, in the experiment with SH-SY5Y, the viability at 10 µM turned out to be 3.6%.

Take `C[C@@H]1CC[C@@]2(OC1)O[C@H]1C[C@H]3[C@@H]4CC=C5C[C@@H](OC(=O)NC(C)(C)C)CC[C@]5(C)[C@H]4CC[C@]3(C)[C@H]1[C@@H]2C`: the viability at 10 µM with SH-SY5Y came out at 7.7%.

For `Cc1ccc(CNC(=O)O[C@H]2CC[C@@]3(C)C(=CC[C@H]4[C@@H]5C[C@@H]6O[C@]7(CC[C@@H](C)CO7)[C@@H](C)[C@@H]6[C@@]5(C)CC[C@@H]43)C2)cc1`, the viability at 10 µM with SH-SY5Y was 26.3%.

For `C[C@@H]1CC[C@@]2(OC1)O[C@H]1C[C@H]3[C@@H]4CC=C5C[C@@H](OC(=O)NC6CCCC6)CC[C@]5(C)[C@H]4CC[C@]3(C)[C@H]1[C@@H]2C`, the viability at 10 µM in the experiment with SH-SY5Y was 3.3%.

On to `C[C@@H]1CC[C@@]2(OC1)O[C@H]1C[C@H]3[C@@H]4CC=C5C[C@@H](OC(=O)N6CCN(Cc7ccc(O)cc7)CC6)CC[C@]5(C)[C@H]4CC[C@]3(C)[C@H]1[C@@H]2C`, for which the viability at 10 µM with SH-SY5Y amounted to 9.7%.

The inhibition is how much of the control response was suppressed.
